Reference: publication PMC7700175, “(E)-1-(Furan-2-yl)-(substituted phenyl)prop-2-en-1-one Derivatives as Tyrosinase Inhibitors and Melanogenesis Inhibition: An In Vitro and In Silico Study” (Molecules, 2020)
Where two headings read alike, the source gives them in different places.

Experiments:
[1] = target: T1, Mushroom tyrosinase (EC 1.14.18.1) (Agaricus bisporus, UniProt C7FF04); parameters: method as in PMID 30360412; settings: earlier results of the authors, cited from earlier work
T1 construct: purchased Sigma-Aldrich
T1 sequence (C7FF04 1-392): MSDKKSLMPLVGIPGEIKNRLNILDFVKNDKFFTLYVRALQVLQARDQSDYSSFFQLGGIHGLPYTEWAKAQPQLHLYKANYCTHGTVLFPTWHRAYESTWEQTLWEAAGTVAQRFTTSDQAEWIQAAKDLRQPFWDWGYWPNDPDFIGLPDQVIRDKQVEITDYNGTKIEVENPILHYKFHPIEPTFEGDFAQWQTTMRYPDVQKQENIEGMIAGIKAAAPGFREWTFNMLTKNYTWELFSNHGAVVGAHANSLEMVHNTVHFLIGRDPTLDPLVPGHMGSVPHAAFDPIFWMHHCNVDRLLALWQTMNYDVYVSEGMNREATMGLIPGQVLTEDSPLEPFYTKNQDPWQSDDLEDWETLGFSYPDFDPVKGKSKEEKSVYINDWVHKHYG

[2] = target: T1, Mushroom tyrosinase (EC 1.14.18.1); assay: Mushroom tyrosinase inhibition assay (L-tyrosine or L-DOPA as substrate); format: biochemical
Protocol: In order to evaluate the inhibitory effects of synthesized furan chalcone derivatives on the enzyme activity, tested compounds were subjected to a mushroom tyrosinase inhibition assay with monophenolase (L-tyrosine) or diphenolase (L-3,4-dihydroxyphenyl-alanine; L-DOPA) as the substrates.
Mushroom tyrosinase inhibition was determined following our previously reported methods. All experiments were done in triplicate. […] The measurement was completed in triplicate for each concentration and averaged. The IC50 values were determined by interpolation of the dose-inhibition % curves.

mushroom tyrosinase = target: T2, mushroom tyrosinase (Agaricus bisporus, UniProt C7FF04); settings: reported inhibitor type of mushroom tyrosinase; cited from earlier work
T2 construct: purchased Sigma-Aldrich
T2 sequence (C7FF04 1-392): as above

[3] = IC50 (μM) b, L-DOPA as substrate (diphenolase), mean ± SEM of triplicate
[4] = L-DOPA as substrate (diphenolase), mean ± SEM of triplicate, read-out: IC50 (μM) b
[5] = L-tyrosine as substrate (monophenolase), mean ± SEM of triplicate, read-out: IC50 (μM) a

Compound	IC50 [2, 4] [µM]	IC50 [2, 5] [µM]	also measured
O=C(/C=C/c1cccs1)c1ccc(O)cc1O [(E)-2,4-dihydroxyphenyl-(thiophen-2-yl)prop-2-en-1-one]			IC50 ([1]; diphenolase): 0.93 µM; IC50 ([1]; monophenolase): 0.013 µM
O=C(O)/C=C/c1ccccc1 [Cinnamic acid, reference compound]			IC50 [2]: > 200 µM; IC50 [2, 3]: > 200 µM; inhibition type (mushroom tyrosinase): mixed-type
O=C(/C=C/c1ccc(O)cc1)c1ccco1 [Compound 1, (E)-1-(Furan-2-yl)-3-(4-hydroxyphenyl)prop-2-en-1-one]	> 200	28.9 ± 1.21	
O=C(/C=C/c1ccc(O)c(O)c1)c1ccco1 [Compound 2, (E)-3-(3,4-Dihydroxyphenyl)-1-(furan-2-yl)prop-2-en-1-one]	24.9 ± 3.25	84.9 ± 3.79	
O=C(/C=C/c1cc(Br)c(O)c(Br)c1)c1ccco1 [Compound 7, (E)-3-(3,5-Dibromo-4-hydroxyphenyl)-1-(furan-2-yl)prop-2-en-1-one]	27.2 ± 0.38	> 200	
O=C(O)c1ccccc1C(=O)O [Phthalic acid, reference compound]			IC50 [2]: > 200 µM; IC50 [2, 3]: > 200 µM; inhibition type (mushroom tyrosinase): mixed-type

The next lines start with results.

IC50 [2, 4] [µM]	IC50 [2, 5] [µM]	Compound	also measured
> 200	> 200	COc1cc(/C=C/C(=O)c2ccco2)ccc1O [Compound 3, (E)-1-(Furan-2-yl)-3-(4-hydroxy-3-methoxyphenyl)prop-2-en-1-one]	
37.4 ± 4.89	13.6 ± 3.74	COc1ccc(/C=C/C(=O)c2ccco2)cc1O [Compound 4, (E)-1-(Furan-2-yl)-3-(3-hydroxy-4-methoxyphenyl)prop-2-en-1-one]	
> 200	> 200	COc1cc(/C=C/C(=O)c2ccco2)cc(OC)c1O [Compound 5, (E)-1-(Furan-2-yl)-3-(4-hydroxy-3,5-dimethoxyphenyl)prop-2-en-1-one]	
> 200	51.2 ± 3.73	O=C(/C=C/c1ccc(O)c(Br)c1)c1ccco1 [Compound 6, (E)-3-(3-Bromo-4-hydroxyphenyl)-1-(furan-2-yl)prop-2-en-1-one]	
